“Also recorded” adds a separate entry of the source.
Assays:
spinal cord injury = conditions: pre-treatment and concurrent treatment with UA; cited from earlier work
[1] = system: pure spinal cord neuron cultures; assay: Sin-1 (peroxynitrite donor) toxicity in pure spinal cord neuron cultures; format: cell-based, rat; conditions: Sin-1 250 μM 1-hr
Procedure: (§1) To grow pure spinal neuron cultures, SCM was changed to Neurobasal medium (NB; Neurobasal medium (Gibco) supplemented with B-27, penicillin, and streptomycin) at 24 hours after plating. After an additional 24 hours, cytosine arabinoside (Ara-C, 5 μM) was added to these cultures for 3 days after which the Ara-C containing media was changed to fresh NB media. Cells were treated 24 hours later.
THA was dissolved in PBS.
(§2) When cells were treated with glutamate, the medium was replaced with solutions of glutamate in Locke's buffer, with or without UA, for 1 hour at 37° C. In control cultures, the medium was replaced with Locke's buffer. After 1 hour, glutamate solutions were changed to SCM or NB and UA was added at the same concentration. In all cases, same amount of Locke's buffer was added to control as vehicle. When the cultures were treated with Sin-1, the drug was added directly to the medium with or without UA, and the same amount of PBS and Locke's buffer were added to control as vehicle. In all cases, cells were incubated for another 24 hours at 37° C. before being fixed or harvested.
Results were derived from 2 independent experiments (n=6). ***p<0.001 by parametric ANOVA followed by Bonferroni Multiple Comparisons Test.

EAAT-1 = assay: Western blot of EAAT-1 protein in mixed spinal cord cultures; format: cell-based, rat
Procedure: (§3) At DIV 7, control and treated mixed spinal cord cultures grown on 35 mm dishes were scraped and protein was harvested in TEEN (25 mM Tris-HCl, pH 7.4, 1 mM EDTA, 1 mM EGTA, 100 mM NaCl) supplemented with 1 mM phenylmethylsulfonyl fluoride (PMSF). Proteins were resolved on 10% SDS-polyacrylamide gels and transferred to PVDF membranes.
(§4) After blocking with 3% bovine serum albumin (BSA), the membrane was incubated with primary antibodies: anti-EAAT-1 (goat polyclonal antibody from Santa Cruz Inc., 1:500) overnight at 4° C.; anti-EAAT-2 (goat polyclonal antibody from Santa Cruz Inc., 1:500) overnight at 4° C.; or anti-actin (mouse monoclonal antibody from Sigma-Aldrich, 1:2000) for 1 hour at room temperature (RT). After washing, the secondary antibody, horseradish peroxidase linked IgG (anti-goat for EAAT-1 and EAAT-2, anti-mouse for actin), was applied at 1:2000 for one hour at RT. The bands were visualized using the enhanced chemiluminescence (ECL) system (Amersham Biosci.).
(§5) The results of the Western blot experiments were analyzed with Universal Hood Gel Documentation Systems and Quantity One V4.2.1 software (BIO-RAD).
(§6) Additional studies examined whether UA affects protein expression of EAAT-1 and EAAT-2. […]

[2] = at normal human levels; cited from earlier work
[3] = system: pure spinal cord neuron cultures; assay: Neuron survival (MAP-2+ count) in pure spinal cord neuron cultures, glutamate toxicity; format: cell-based, rat; conditions: for neuron loss: 1 hour
Procedure: as §1, §2
(§7) Cells were fixed with 4% paraformaldehyde for 30 minutes at room temperature. After washing with PBS, the cultures were incubated with anti-MAP-2 (1:500), anti-GFAP (1:1000), anti-CNPase (1:500), anti-vimentin (1:1000) or anti-CD11 (1:500) for 2 hours at room temperature. Positive cells were then visualized with Cy2 anti-mouse secondary antibodies.
(§8) For each well, pictures were taken for 10 random fields at a magnification of 100×. Cell number (as indicated by the appropriate immunostain) in each of the 10 pictures was counted by an experimenter blind to the condition. Cell numbers in control and treated groups were compared with one-way analysis of variance (ANOVA) using the Instat software program (Graph Pad).
To address this question, pure spinal cord neuron cultures were established. Twenty four hours after plating in SCM, SCM was changed to NB medium, which optimizes neuronal growth. Ara-C (5 μM) was added to the cultures after another 24 hours to eliminate the glial populations. The medium was changed after 3 days, and cells were treated 24 hours later. This procedure eliminated non-neuronal cell types in the cultures with only neurons surviving.
To determine the sensitivity of pure neuronal and mixed cultures to glutamate, pure spinal cord neuron cultures were established, and after 6 days, these cells were treated with glutamate for 1 hour. Cells were fixed after 24 hours and stained with anti-MAP-2 antibody. (A) Control cultures and cells treated with 2, 10, and 500 μM glutamate are illustrated. […] Results were derived from 3 independent experiments (n=7). ***p<0.001 by nonparametric ANOVA followed by Dunn's analysis comparing glutamate treated groups with control. Scale bar, 50 μm.
To examine whether UA can directly reduce glutamate toxicity in pure neuronal cultures, cells were treated with or without various concentrations of UA either concurrent with or at the termination of exposure to 10 μM glutamate. More specifically, six days after plating, pure spinal cord neuron cultures were treated with glutamate (10 or 500 μM) for 1 hour. UA (100 or 200 μM) was added with and after glutamate treatments. Cells were fixed after 24 hours and numbers of neurons that survived (MAP-2+) were counted. Results shown in FIG. 6 were derived from 2 independent experiments (n=6). ***p<0.001 by nonparametric ANOVA followed by Dunn's analysis for multiple comparisons comparing treated groups with control.

[4] = system: mouse spinal cord neuron cultures; conditions: mouse spinal cord neuron cultures treated with UA; cited from earlier work
[5] = system: spinal cord neurons co-cultured with astroglia; assay: Astroglia re-plated onto pure spinal cord neuron cultures, glutamate toxicity; format: cell-based, rat; conditions: glutamate 50 μM 1 hour, then 100 μM UA
Procedure: Spinal cord astroglial cultures were derived from postnatal day 1 rats using a modified approach from MaCarthy and de Vellis (McCarthy and deVellis 1980). Spinal cords were dissected and dissociated with trituration. Cells were plated in tissue culture flasks at density of 1000 cells/mm^2. Cultures were grown in NM-15 medium (84.4% MEM, 15% Fetal Bovine Serum, 0.6% glucose, supplemented with penicillin and streptomycin) for 9 days. Medium was changed every 3 days. The flasks were then shaken at 400×rpm for 20 minutes before the medium was changed and the floating cells (mostly microglia) were washed away. The flasks were again shaken overnight at 250×rpm to remove attached oligodendrocytes and remaining microglia. Following shaking, floating cells were washed away and medium was changed. Ara-C was added to final concentration of 10 μM to reduce the number of undifferentiated cells. Cultures were grown for 3 additional days before being trypsinized and re-plated at a density of 500 cells/mm^2 in SCM. These cultures only contain GFAP+ and vimentin+ astroglia. Staining for MAP-2 and CNPase were negative.
To determine the contribution of direct astroglial cell presence to the neuroprotective effects of UA, astroglial cultures were grown for 5 days in SCM before the cells were trypsinized and plated onto pure spinal cord neuron cultures grown for 5 days in vitro (DIV 5). […]

spinal cord neurons = assay: Neuron survival (MAP-2+ count) in mixed spinal cord cultures grown in SCM, glutamate toxicity; format: cell-based, rat; conditions: for glutamate-elicited neuronal cell death, dose dependence: various concentrations of glutamate
Procedure: Spinal cords were dissected from embryonic day 16 (E16) rat embryos. Meninges were removed, and the cords were dissociated with gentle trituration. Cells were plated at a density of 350 neurons/mm^2.
as §2, §7, §8
Glutamate is the major physiological agent that mediates cell death after spinal cord injury. To examine the survival of spinal cord neurons in an in vitro model of SCI, mixed cell cultures derived from embryonic 16 (E16) rat spinal cords were treated with a range of concentrations of glutamate. These cells were grown in serum-containing medium (SCM) for 6 days (DIV 6) before being treated with various concentrations of glutamate for 1 hour. The brief exposure to high levels of glutamate mimics its temporary up-regulation after SCI. After glutamate was removed, cells were kept in SCM for another 24 hours before the cultures were fixed and immunostained. The numbers of surviving neurons were monitored with immunohistochemical labeling of MAP-2, a marker for neurons.
To determine whether UA can be used to prevent glutamate toxicity, initial experiments monitored the effects of UA on spinal cord neuron survival during basal conditions. DIV 6 cultures were treated with different concentrations of UA for 24 hours before being fixed and immunostained, and the numbers of neurons were counted. […] The results were derived from 2 independent experiments (n=6).
Further experiments were designed to reveal if UA could reduce neuronal cell death after glutamate exposure. Cells were treated with 500 μM glutamate with or without various concentrations of UA. UA was applied with glutamate and the same concentration of UA was added after the removal of glutamate. […] With high concentrations of UA, glutamate-promoted neuronal cell death was abolished (FIG. 3B). The results were derived from 6 independent experiments (n=12).

EAAT-2 = assay: Western blot of EAAT-2 protein in mixed spinal cord cultures; format: cell-based, rat; conditions: UA 100 μM 24 hours, glutamate, or glutamate and UA
Procedure: as §3, §4, §5, §6

Structure (SMILES): O=c1[nH]c(=O)c2[nH]c(=O)[nH]c2[nH]1 [UA, uric acid]
- secondary damage (spinal cord injury): reduced secondary damage
- toxicity elicited by Sin-1, UA added after Sin-1 ([1]; UA 100 μM added after): did not elicit a reversal of toxicity
- toxicity elicited by Sin-1, UA concurrently present ([1]; UA 100 μM concurrent): significantly reversed; also recorded: reduces damages elicited by Sin-1 treatment
- EAAT-1 protein expression normalized to actin (EAAT-1; UA 100 μM, 24 hours, mixed cultures DIV 6): upregulated
- EAAT-1 protein expression, glutamate prior to UA (EAAT-1; glutamate 500 μM 1 hour, then UA 100 μM): did not influence UA actions in increasing EAAT-1 protein expression
- carbon dioxide binding with peroxynitrite, times faster than UA [2]: 920 times
- effect of UA itself on neuron survival ([3]; UA 100 or 200 μM): no effect on neuron survival
- protection against glutamate toxicity ([3]; UA 100 or 200 μM with and after glutamate (10 or 500 μM, 1 hour)): did not show any protection against glutamate toxicity; also recorded: did not alter the neuron loss; also recorded: did not protect spinal cord neurons against glutamate toxicity; also recorded: does not decrease glutamate toxicity
- peroxynitrite toxicity [4]: blocked peroxynitrite toxicity
- toxic effects of glutamate in astroglia/neuron combined cultures [5]: blocked the toxic effects of glutamate; also recorded: reinstates the effects of UA in reducing glutamate toxicity
- cell loss elicited by glutamate at 100 μM UA (spinal cord neurons; 100 μM UA, cultures grown in SCM): reversed the cell loss
- effect on glutamate toxicity, UA added with and after glutamate (spinal cord neurons; 500 μM glutamate 1 hour, various concentrations of UA, mixed cultures): blocked glutamate toxicity in a dose-dependent manner
- glutamate-promoted neuronal cell death at high concentrations of UA (spinal cord neurons; 500 μM glutamate, high concentrations of UA added with and after glutamate, mixed cultures): abolished
- effect on survival of spinal cord neurons during basal conditions (spinal cord neurons; UA different concentrations, 24 hours, DIV 6 mixed cultures, no glutamate): no effect on the survival of spinal cord neurons; also recorded: does not affect survival of spinal cord neurons
- EAAT-2 protein expression normalized to actin (EAAT-2): not altered

Structure (SMILES): N[C@@H](CCC(=O)O)C(=O)O [glutamate]
- neuron loss ([3]; glutamate 10 μM): more than 80%
- neuron loss ([3]; glutamate 500 μM): essentially eliminated all neurons; also recorded: almost total neuron elimination
- cell loss, dose dependence ([3]; glutamate 1 hour): dose-dependent cell loss
- neurons that did not survive (spinal cord neurons; glutamate 500 μM and 1 mM, 1 hour, mixed cultures, fixed 24 hours later): approximately 40%
- glutamate-elicited neuronal cell death, dose dependence (spinal cord neurons; mixed cultures, 1 hour): increased in a dose-dependent manner
- glutamate-elicited neuronal cell death, dose dependence (spinal cord neurons; mixed cultures, 1 hour, listed as Glutamate): induces loss of spinal cord neurons in a dose-dependent manner

— patent US20130323753A1, “METHODS AND KITS FOR IDENTIFICATION OF ANTI-EXCITOTOXIC COMPOUNDS” (RUTGERS, THE STATE UNIVERSITY OF NEW JERSEY, priority 2007, published 2013)
